The test system of assay [1] is Cdc2 (Cdk1) tyrosine-15 phosphorylation in NCI-H1299 cells. Description: Inhibitory effect on Cdc2 (Cdk1) tyrosine-15 phosphorylation in cells (Pharmacological Test 2, NCI-H1299 method). Format: cell-based. The following applies: Homo sapiens, 200 nM camptothecin 16 hours, then test compound with nocodazole 8 hours, ELISA ratio of tyrosine-15-phosphorylated Cdc2 to Cdc2, read-out: Cdc2-Tyrosine 15 Phosphorylation Inhibiting Effect. The text has this: Pharmacological Test 2 (Method for determining drug effect using cells (inhibitory effect on Cdc2 (Cdk1) tyrosine-15 phosphorylation))
Fetal bovine serum (FBS) was purchased from Morgate, Inc.; an RPMI-1640 medium and a DMEM medium were purchased from Invitrogen, Inc.; camptothecin was purchased from Sigma Co.; gemcitabine was purchased from Eli Lilly Japan K.K.; nocodazole and protease inhibitor cocktail were purchased from Sigma Co.; a rabbit anti-Cdc2 antibody and a mouse anti-Cdc2 antibody were purchased from Santa Cruz Biotechnology, Inc.; a rabbit anti-tyrosine-15-phosphorylated Cdc2 antibody and a horseradish peroxidase-labeled anti-mouse IgG antibody were purchased from Cell Signaling Technology, Inc.; and Sure Blue Reserve TMB peroxidase substrate was purchased from Kirkegaard & Perry Laboratories, Inc.
A human non-small cell lung cancer cell line (NCI-H1299) and a human colon cancer cell line (WiDr) can be obtained from American Type Culture Collection (ATCC).
In the method using NCI-H1299 cells, the cells were suspended in an RPMI-1640 medium supplemented with 10% FBS, and 100 μL of the resulting cell suspension was dispensed in a Nunclon Delta treated 96-well plastic plate purchased from Nunc, Inc. at a density of 2000 cells per well, and the plate was incubated overnight at 37° C. under an atmosphere of 5% CO2 and 95% air. Camptothecin was dissolved in dimethyl sulfoxide (DMSO) and further the resulting solution was diluted with an RPMI-1640 medium supplemented with 10% FBS. Then, 50 μL of the diluted solution was added to each well of the plate in which the cells were seeded in advance such that the final concentration of camptothecin was 200 nM, and the plate was incubated at 37° C. under an atmosphere of 5% CO2 and 95% air for 16 hours. A test compound was serially diluted with DMSO, and further diluted with an RPMI-1640 medium supplemented with 10% FBS containing 4000 nM nocodazole. Then, 50 μL of the test compound solution was added to each well of the plate in which the cells treated with camptothecin were seeded, and the plate was incubated at 37° C. under an atmosphere of 5% CO2 and 95% air for 8 hours. Then, the culture medium was removed from each well and […] of a cell lysis buffer was added to each well, and the plate was shaken at 4° C. for 2 hours, and thereafter the liquid in the plate was frozen at −80° C. and then thawed, which was used as a lysed cell solution. Cdc2 and tyrosine-15-phosphorylated Cdc2 in this lysed cell solution were measured by an enzyme-linked immunosorbent assay (ELISA method), and a ratio of tyrosine-15-phosphorylated Cdc2 to Cdc2 was calculated to determine a 50% effective concentration (EC50, nM) of the test compound for inhibition of phosphorylation in cells. The cell lysis buffer as used herein is an aqueous solution […] containing 20 mM HEPES (pH 7.5), 150 mM sodium chloride, 1 mM disodium ethylenediamine tetraacetate, 0.1% polyoxyethylene (10) octylphenyl ether, 1% protease inhibitor cocktail, 1 mM dithiothreitol, 2 mM sodium orthovanadate, 10 mM sodium fluoride and 10 mM glycerol diphosphate. The measurement of Cdc2 by the ELISA method was carried out as follows. 50 μL of a solution of a rabbit anti-Cdc2 antibody obtained by diluting the antibody to 200 times with 50 mM carbonate-bicarbonate buffer (pH 9.6) was dispensed into each well of a 96-well Maxisorb immunoplate purchased from Nunc, Inc., and the immunoplate was let stand overnight at 4° C. to immobilize the antibody thereto. Subsequently, each well was washed three times with phosphate buffered saline (PBS), and 300 μL of PBS containing 5% bovine serum albumin (5% BSA/PBS) was added to each well, and then, the immunoplate was let stand at room temperature for 2 hours. […]

Assay [2] deals with T1, Wee1 kinase (Homo sapiens, UniProt P30291).
T1 construct: made in house; host or cells: Sf9 insect cells (recombinant baculovirus)
The assay is described as follows: Wee1 kinase inhibitory effect (Pharmacological Test 1). Format: biochemical. The following applies: purified GST-tagged Wee1 kinase, Poly(Lys, Tyr) substrate, 10 μM ATP, 30° C. for 30 minutes; read-out: Weel Inhibition Activity (IC50). The text has this: The following describes exemplary pharmacological tests of a compound of the present invention._Pharmacological Test 1 (Wee1 kinase inhibitory effect)
A cDNA of Wee1 kinase with glutathione-S-transferase (GST) fused at the amino terminal thereof was inserted into a baculovirus expression vector to construct a recombinant baculovirus, with which cells of an insect cell line Sf9 were infected to overexpress the target protein. The infected cells were collected and lysed, and then the GST-tagged Wee1 kinase protein was adsorbed to a glutathione column and eluted from the column with glutathione, and the active fraction was desalted in a desalting column to give a purified enzyme.
In measurement of the Wee1 kinase activity, a synthetic peptide, Poly(Lys, Tyr) hydrobromide (Lys:Tyr (4:1)) purchased from Sigma was used as the substrate.
The amount of the reaction mixture was 21.1 μL; and the composition of the reaction buffer was 50 mM Tris-HCl buffer (pH 7.4)/10 mM magnesium chloride/1 mM dithiothreitol. The purified Wee1 kinase, 2.5 μg of the substrate peptide, 10 μM of non-labeled adenosine triphosphate (ATP) and 1 μCi of [γ-^33P]-labeled ATP (2500 Ci/mmol or more) were added to the reaction buffer, and the resulting mixture was incubated at 30° C. for 30 minutes. Thereafter, 10 μL of 350 mM phosphate buffer was added to the reaction system to stop the reaction. The substrate peptide was adsorbed on a P81 paper filter 96-well plate and the plate was washed several times with 130 mM phosphate buffer, and the radioactivity thereof was counted using a liquid scintillation counter. The [γ-^33P]-labeled ATP was purchased from Amersham Bioscience, Ltd.
The addition of a test compound to the reaction system was carried out by preparing a series of dilutions of the compound with dimethyl sulfoxide (DMSO) and adding 1.1 μL of each dilution to the reaction system. As a control, 1.1 μL of DMSO was added to the reaction system.

Usually IC50 stands for the midpoint of a concentration-inhibition curve.

T1 sequence (P30291 whole entry): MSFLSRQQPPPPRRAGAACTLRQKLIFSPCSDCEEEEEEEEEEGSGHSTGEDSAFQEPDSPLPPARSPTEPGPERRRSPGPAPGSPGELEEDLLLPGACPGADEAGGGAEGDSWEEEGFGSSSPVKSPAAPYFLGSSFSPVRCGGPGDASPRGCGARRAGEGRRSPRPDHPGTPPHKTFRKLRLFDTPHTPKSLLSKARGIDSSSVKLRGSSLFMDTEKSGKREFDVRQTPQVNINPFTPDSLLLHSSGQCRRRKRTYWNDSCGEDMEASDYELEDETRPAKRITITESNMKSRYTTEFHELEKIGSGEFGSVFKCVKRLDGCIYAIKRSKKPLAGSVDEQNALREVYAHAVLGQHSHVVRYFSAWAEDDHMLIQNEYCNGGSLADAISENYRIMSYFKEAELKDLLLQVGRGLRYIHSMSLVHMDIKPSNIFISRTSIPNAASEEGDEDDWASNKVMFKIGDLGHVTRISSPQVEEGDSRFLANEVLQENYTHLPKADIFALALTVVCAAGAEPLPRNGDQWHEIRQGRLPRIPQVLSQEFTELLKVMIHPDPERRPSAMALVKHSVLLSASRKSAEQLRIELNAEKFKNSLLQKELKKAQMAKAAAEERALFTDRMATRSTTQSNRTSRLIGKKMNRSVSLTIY

As to `CN1CC2CCN(c3ccc(Nc4ncc5c(=N)n(-c6c(Cl)cccc6Cl)c(=O)[nH]c5n4)cc3)C2C1` (stereo not shown) [Example 9, 3-(2,6-Dichlorophenyl)-4-imino-7-{[4-(5-methylhexahydropyrrolo[3,4-b]pyrrol-1(2H)-yl)phenyl}amino)-3,4-dihydropyrimido[4,5-d]pyrimidin-2(1H)-one], the EC50 in assay [1] is 110 nM. In assay [2], the IC50 is 16 nM.

With `CN(C)[C@@H]1CCN(c2ccc(Nc3ncc4c(=N)n(-c5c(Cl)cccc5Cl)c(=O)[nH]c4n3)cc2)C1` [Example 8, 3-(2,6-Dichlorophenyl)-7-({4-[(3R)-3-dimethylaminopyrrolidin-1-yl]phenyl}amino)-4-imino-3,4-dihydropyrimido[4,5-d]pyrimidin-2(1H)-one], the EC50 in assay [1] is 75 nM. Besides, the IC50 in assay [2] is 17 nM.

Take `Cc1cc(Nc2ncc3c(=N)n(-c4c(Cl)cccc4Cl)c(=O)[nH]c3n2)ccc1N1CCN(C)CC1` [Example 6, 3-(2,6-Dichlorophenyl)-4-imino-7-{[3-methyl-4-(4-methylpiperazin-1-yl)phenyl]amino}-3,4-dihydropyrimido[4,5-d]pyrimidin-2(1H)-one]: in assay [1], the EC50 came out at 25 nM. Also, the IC50 in assay [2] was determined as 8 nM.

In the case of `CN1CCN(c2ccc(Nc3ncc4c(=N)n(-c5c(Cl)cccc5Cl)c(=O)[nH]c4n3)cc2)CC1` [Example 5, 3-(2,6-Dichlorophenyl)-4-imino-7-{[4-(4-methylpiperazin-1-yl)phenyl]amino}-3,4-dihydropyrimido[4,5-d]pyrimidin-2(1H)-one], the EC50 in assay [1] stood at 66 nM. Further, the IC50 in assay [2] was 17 nM.

As for `CN1CCC2(CCCN(c3ccc(Nc4ncc5c(=N)n(-c6c(Cl)cccc6Cl)c(=O)[nH]c5n4)cc3)C2)C1` (stereo not shown) [Example 10, 3-(2,6-Dichlorophenyl)-4-imino-7-{[4-(2-methyl-2,7-diazaspiro[4,5]dec-7-yl)phenyl}amino)-3,4-dihydropyrimido[4,5-d]pyrimidin-2(1H)-one], the EC50 in assay [1] worked out at 110 nM. Further, the half-inhibitory concentration (IC50) in assay [2] was found to be 18 nM.

For the compound `CN1CCN(c2ccc(Nc3ncc4c(=N)n(-c5c(Cl)cccc5Cl)c(=O)n(C)c4n3)cc2)CC1` [Example 7, 3-(2,6-Dichlorophenyl)-4-imino-1-methyl-7-{[4-(4-methylpiperazin-1-yl)phenyl]amino}-3,4-dihydropyrimido[4,5-d]pyrimidin-2(1H)-one], the IC50 in assay [2] amounted to 6 nM.

In the case of `CN(C)CC(=O)N1CCN(c2ccc(Nc3ncc4c(=N)n(-c5c(Cl)cccc5Cl)c(=O)n(C)c4n3)cc2)CC1` [Example 3, 3-(2,6-Dichlorophenyl)-7-[(4-{4-[(dimethylamino)acetyl]piperazin-1-yl}phenyl)amino]-4-imino-1-methyl-3,4-dihydropyrimido[4,5-d]pyrimidin-2(1H)-one], the EC50 in assay [1] was determined as 45 nM. For the same compound, the IC50 in assay [2] was 12 nM.

In the case of `Cn1c(=O)n(-c2c(Cl)cccc2Cl)c(=N)c2cnc(Nc3ccc(N4CCOC(CO)C4)cc3)nc21` (stereo not shown) [Example 2, 3-(2,6-Dichlorophenyl)-7-({4-[2-(hydroxymethyl)morpholin-4-yl]phenyl}amino)-4-imino-1-methyl-3,4-dihydropyrimido[4,5-d]pyrimidin-2(1H)-one], the EC50 in assay [1] stood at 86 nM. Further, in assay [2], the IC50 was 2 nM.

`Cn1c(=O)n(-c2c(Cl)cccc2Cl)c(=N)c2cnc(Nc3ccc(N4CCN(CCO)CC4)cc3)nc21` [Example 1, 3-(2,6-Dichlorophenyl)-7-({4-[4-(2-hydroxyethyl)piperazin-1-yl]phenyl}amino)-4-imino-1-methyl-3,4-dihydropyrimido[4,5-d]pyrimidin-2(1H)-one]: the EC50 in assay [1] is 71 nM. Moreover, the IC50 in assay [2] came to 4 nM.

As for `CN(C)CC1CN(c2ccc(Nc3ncc4c(=N)n(-c5c(Cl)cccc5Cl)c(=O)n(C)c4n3)cc2)CCO1` (stereo not shown) [Example 4, 3-(2,6-Dichlorophenyl)-7-[(4-{2-[(dimethylamino)methyl]morpholin-4-yl}phenyl)amino]-4-imino-1-methyl-3,4-dihydropyrimido[4,5-d]pyrimidin-2(1H)-one], the EC50 in assay [1] was 34 nM. The IC50 in assay [2] amounted to 10 nM.

(Values after patent US8507505B2, “Dihydropyrazolopyrimidinone derivative” (MSD K.K., priority 2008, dated 2013).)
